This passage reports Ki results from US8501446B2 (Vertex Pharmaceuticals Incorporated, priority 2004, dated 2013).

Experiment [1] has as its target T1, full length Aurora-A (AA 1-403) (Homo sapiens, UniProt O14965).
T1 construct: full length Aurora-A (AA 1-403)
T1 sequence (O14965 1-403): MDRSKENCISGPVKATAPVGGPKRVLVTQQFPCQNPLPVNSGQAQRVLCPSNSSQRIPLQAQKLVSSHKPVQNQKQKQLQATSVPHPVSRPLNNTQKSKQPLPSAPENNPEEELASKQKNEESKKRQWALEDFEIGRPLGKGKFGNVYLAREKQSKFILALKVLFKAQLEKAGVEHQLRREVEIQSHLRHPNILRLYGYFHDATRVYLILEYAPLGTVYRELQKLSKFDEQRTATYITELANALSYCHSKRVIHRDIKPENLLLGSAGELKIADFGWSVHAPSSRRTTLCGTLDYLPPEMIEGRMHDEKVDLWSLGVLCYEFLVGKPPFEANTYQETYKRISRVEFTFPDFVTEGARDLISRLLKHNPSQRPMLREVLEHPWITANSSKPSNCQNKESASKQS
In words: Aurora-A inhibition assay, standard coupled enzyme system. The format is biochemical. Conditions: average Ki if more than one value determined. The protocol: Compounds were screened for their ability to inhibit full length Aurora-A (AA 1-403) activity using a standard coupled enzyme system (Fox et al., Protein Sci. 7, pp. 2249 (1998)). Reactions were carried out in a solution containing 100 mM HEPES (pH 7.5), 10 mM MgCl2, 25 mM NaCl, 300 μM NADH, 1 mM DTT and 3% DMSO. Final substrate concentrations in the assay were 200 μM ATP (Sigma Chemicals, St Louis, Mo.) and 800 μM peptide (LRRASLG, American Peptide, Sunnyvale, Calif.). Reactions were carried out at 30° C. and 35 nM Aurora-A. Final concentrations of the components of the coupled enzyme system were 2.5 mM phosphoenolpyruvate, 200 μM NADH, 60 μg/ml pyruvate kinase and 20 μg/ml lactate dehydrogenase.
An assay stock buffer solution was prepared containing all of the reagents listed above with the exception of ATP and the test compound of interest. The assay stock buffer solution (60 μl) was incubated in a 96 well plate with 2 μl of the test compound of interest at final concentrations spanning 0.002 μM to 30 μM at 30° C. for 10 min. Typically, a 12 point titration was conducted by preparing serial dilutions (from 1 mM compound stocks) with DMSO of the test compounds in daughter plates. The reaction was initiated by the addition of 5 μl of ATP (final concentration 200 μM). Rates of reaction were obtained using a Molecular Devices Spectramax plate reader (Sunnyvale, Calif.) over 10 min at 30° C. The Ki values were determined from the rate data as a function of inhibitor concentration using computerized nonlinear regression (Prism 3.0, Graphpad Software, San Diego, Calif.). Aurora-C activity was screened in a similar manner using Aurora-C protein. Aurora-B activity was screened using a radioactive assay, such as described in Examples 1 and 2, but using Aurora-B protein.

The target in a further experiment is T2, ROCK I (AA 6-553) (Homo sapiens, UniProt Q13464).
T2 construct: ROCK I (AA 6-553)
In words: ROCK inhibition assay, standard coupled enzyme system ("Enzyme"). The format is biochemical. Particulars: enzyme-linked assay. The protocol:
Compounds were screened for their ability to inhibit ROCK I (AA 6-553) activity using a standard coupled enzyme system (Fox et al. (1998) Protein Sci. 7, 2249). Reactions were carried out in a solution containing 100 mM HEPES (pH 7.5), 10 mM MgCl2, 25 mM NaCl, 2 mM DTT and 1.5% DMSO. Final substrate concentrations in the assay were 45 μM ATP (Sigma Chemicals, St Louis, Mo.) and 200 μM peptide (American Peptide, Sunnyvale, Calif.). Reactions were carried out at 30° C. and 45 nM ROCK L. Final concentrations of the components of the coupled enzyme system were 2.5 mM phosphoenolpyruvate, 350 μM NADH, 30 μg/ml pyruvate kinase and 10 μg/ml lactate dehydrogenase.

T2 sequence (Q13464 6-553, species assumed): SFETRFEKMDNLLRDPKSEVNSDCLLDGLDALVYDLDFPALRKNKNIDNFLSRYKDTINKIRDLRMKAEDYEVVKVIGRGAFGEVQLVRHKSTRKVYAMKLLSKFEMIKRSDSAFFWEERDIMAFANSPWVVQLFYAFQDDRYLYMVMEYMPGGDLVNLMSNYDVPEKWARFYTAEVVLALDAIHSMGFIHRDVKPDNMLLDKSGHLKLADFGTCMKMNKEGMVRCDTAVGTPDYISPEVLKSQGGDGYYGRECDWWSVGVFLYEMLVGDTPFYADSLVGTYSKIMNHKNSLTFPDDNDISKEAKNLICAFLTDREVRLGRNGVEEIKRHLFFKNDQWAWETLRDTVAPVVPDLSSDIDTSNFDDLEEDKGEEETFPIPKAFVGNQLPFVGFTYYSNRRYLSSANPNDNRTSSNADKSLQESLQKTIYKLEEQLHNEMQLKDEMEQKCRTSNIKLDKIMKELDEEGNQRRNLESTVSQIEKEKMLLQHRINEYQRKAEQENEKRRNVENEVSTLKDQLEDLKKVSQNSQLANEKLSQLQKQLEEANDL

What is called Ki is a measure of affinity in units of concentration, obtained from inhibition or displacement. High values mean a looser hold on the target, low ones a stronger hold on the target. With `CC(=O)Nc1cccc(-c2c[nH]c3ncc(Cl)cc23)n1` [Compound 283], the Ki in experiment [1] was 500 to 5000 nM.

Turning to `Nc1cccc(-c2c[nH]c3ncc(Cl)cc23)n1` [Compound 246], the Ki (in experiment [1]; at ROCK I (AA 6-553)) was 500 to 5000 nM in each case.

In turn, `OCc1cc(-c2c[nH]c3ncc(Cl)cc23)nc(N2CCNCC2)c1` [Compound 405] yielded a Ki in experiment [1] of less than 500 nM.

Take `Clc1cccc(Nc2cccc(-c3c[nH]c4ncc(Cl)cc34)n2)c1` [Compound 273]: the Ki in experiment [1] was less than 500 nM; on ROCK I (AA 6-553) it was 500 to 5000 nM. Taken in the same sequence, the figures for `Fc1cnc(-c2c[nH]c3ncc(Cl)cc23)nc1NC[C@H]1CCNC1` [Compound 379] were less than 500 nM and less than 500 nM. On the same counts, the results for `Clc1cnc2[nH]cc(-c3cccc(Nc4ccccc4Cl)n3)c2c1` [Compound 263] are less than 500 nM and 500 to 5000 nM. Regarding `C[C@H](Nc1nc(-c2c[nH]c3ncc(Cl)cc23)ncc1F)C(=O)NC1CCS(=O)(=O)C1` (stereo partly drawn) [Compound 390], the Ki (in experiment [1]; on ROCK I (AA 6-553)) was 500 to 5000 nM in each case.

Consider `Clc1ccc(CNc2cccc(-c3c[nH]c4ncc(-c5ccccc5)cc34)n2)cc1Cl` [Compound 261], for which the Ki (in experiment [1]; at ROCK I (AA 6-553)) was 500 to 5000 nM each time. `NC(=O)c1ccc(-c2c[nH]c3ncc(Sc4ccccc4)cc23)cc1` [Compound 304] displayed a Ki at ROCK I (AA 6-553) of 500 to 5000 nM. `CC(C)(C)OC(=O)N(Cc1ccc(S(C)(=O)=O)cc1)c1cccc(-c2c[nH]c3ncc(Cl)cc23)n1` [Compound 245] returned a Ki in experiment [1] of less than 500 nM. `NC(=O)c1ccc(-c2c[nH]c3ncc(-c4ccc(F)cc4)cc23)cc1` [Compound 227]: the Ki (in experiment [1]; on ROCK I (AA 6-553)) was less than 500 nM throughout. In the case of `CCCNc1cccc(-c2c[nH]c3ncc(-c4ccccc4)cc23)n1` [Compound 259], the Ki (in experiment [1]; at ROCK I (AA 6-553)) was less than 500 nM in each case.

As to `CC(C)(C)OC(=O)Nc1cccc(-c2c[nH]c3ncc(Cl)cc23)n1` [Compound 250], the figures for the Ki (in experiment [1]; at ROCK I (AA 6-553)) were less than 500 nM and 500 to 5000 nM, respectively. Taken in the same sequence, the figures for `CC(=O)N1CCC(CNc2nc(-c3c[nH]c4ncc(Cl)cc34)ncc2F)CC1` [Compound 383] were less than 500 nM and 500 to 5000 nM. Taken in the same sequence, the figures for `C[C@H](Nc1nc(-c2c[nH]c3ncc(Br)cc23)ncc1F)c1ccc(F)cc1` [Compound 357] were less than 500 nM and 500 to 5000 nM. For `c1ccc(Nc2cccc(-c3c[nH]c4ncc(-c5ccccc5)cc34)n2)cc1` [Compound 265], the Ki in experiment [1] was less than 500 nM; on ROCK I (AA 6-553) it was 500 to 5000 nM. Consider `CNc1cccc(-c2cn(C)c3ncc(Cl)cc23)n1` [Compound 292], for which the results for the Ki (in experiment [1]; on ROCK I (AA 6-553)) were greater than 5000 nM and 500 to 5000 nM, respectively. On the same counts, the results for `O=C(Nc1cccc(-c2c[nH]c3ncc(Cl)cc23)n1)c1ccccn1` [Compound 294] are less than 500 nM and 500 to 5000 nM. With `COCCNC(=O)[C@H](C)Nc1nc(-c2c[nH]c3ncc(Cl)cc23)ncc1F` [Compound 392], the Ki in experiment [1] was less than 500 nM; on ROCK I (AA 6-553), 500 to 5000 nM.

`NCCC[C@H](Nc1nc(-c2c[nH]c3ncc(Cl)cc23)ncc1F)C(=O)O` [Compound 403]: the Ki in experiment [1] was in the range of 500 to 5000 nM. `NC(=O)c1ccc(-c2c[nH]c3ncc(CCc4ccccc4)cc23)cc1` [Compound 303]: the inhibition constant Ki on ROCK I (AA 6-553) was less than 500 nM. Turning to `CC(C)NS(=O)(=O)CCNC(=O)[C@H](C)Nc1nc(-c2c[nH]c3ncc(Cl)cc23)ncc1F` [Compound 469], in experiment [1], the Ki was less than 500 nM.

In experiment [1], `C#Cc1cc(-c2c[nH]c3ncc(Cl)cc23)nc(N2CCNCC2)c1` [Compound 412] had a Ki of less than 500 nM. The same measure, in the same setting: next, `NC(=O)c1ccc(-c2c[nH]c3ncc(-c4ccsc4)cc23)cc1` [Compound 236]: less than 500 nM; `C[C@H](Nc1nc(-c2c[nH]c3ncc(N)cc23)ncc1F)c1ccc(F)cc1` [Compound 343]: 500 to 5000 nM; `CC(C)CCNC(=O)[C@H](C)Nc1nc(-c2c[nH]c3ncc(Cl)cc23)ncc1F` [Compound 464]: 500 to 5000 nM.

Take `C[C@H](Nc1nc(-c2c[nH]c3ncc(C(=O)N(C)C)cc23)ncc1F)c1ccc(F)cc1` [Compound 346]: the Ki in experiment [1] lay in the range of 500 to 5000 nM. The same measure, in the same setting: next, `C[C@H](Nc1nc(-c2c[nH]c3ncc(Cl)cc23)ncc1F)C(=O)NCCC(=O)O` [Compound 466]: 500 to 5000 nM; `CNC(=O)CCNC(=O)[C@H](C)Nc1nc(-c2c[nH]c3ncc(Cl)cc23)ncc1F` [Compound 467]: less than 500 nM. For the molecule `N#Cc1ccnc(-c2c[nH]c3ncc(Cl)cc23)c1` [Compound 353], at ROCK I (AA 6-553), the Ki is 500 to 5000 nM. In the case of `CNS(=O)(=O)c1ccc(-c2c[nH]c3ncc(-c4ccccc4)cc23)cc1` [Compound 233], the Ki at ROCK I (AA 6-553) was in the range of 500 to 5000 nM. For the molecule `O=C(Nc1cccc(-c2c[nH]c3ncc(Cl)cc23)n1)c1cccc(Cl)c1` [Compound 282], in experiment [1], the Ki was less than 500 nM. The same measure, in the same setting: next, `CC(C)NC(=O)CCNC(=O)[C@H](C)Nc1nc(-c2c[nH]c3ncc(Cl)cc23)ncc1F` [Compound 468]: less than 500 nM. On the same count and under the same terms, next, `C[Si](C)(C)c1[nH]c2ncc(-c3ccccc3)cc2c1-c1ccccc1` [Compound 210]: 500 to 5000 nM; `Fc1cnc(-c2c[nH]c3ncc(Cl)cc23)nc1OCc1ccc(Cl)cc1` [Compound 314]: 500 to 5000 nM; `CS(=O)(=O)Nc1ccc(-c2c[nH]c3ncc(-c4ccccc4)cc23)cc1` [Compound 234]: less than 500 nM. In turn, `Nc1cccc(-c2c[nH]c3ncc(-c4ccccc4)cc23)n1` [Compound 268] returned a Ki in experiment [1] of 500 to 5000 nM.

In the case of `c1ccc(CNc2cccc(-c3c[nH]c4ncc(-c5ccccc5)cc34)n2)cc1` [Compound 269], the Ki in experiment [1] was less than 500 nM. For the molecule `Clc1cnc2[nH]cc(-c3cccc(N4CCCC4)n3)c2c1` [Compound 241], the Ki in experiment [1] is 500 to 5000 nM. For `CCNC(=O)c1cccc(-c2c[nH]c3ncc(-c4cc(Cl)cc(Cl)c4)cc23)c1` [Compound 226], the Ki in experiment [1] lay in the range of 500 to 5000 nM. On the same count and under the same terms, next, `O=C(Cc1ccccc1)Nc1cccc(-c2c[nH]c3ncc(Cl)cc23)n1` [Compound 280]: less than 500 nM; `Clc1cnc2[nH]cc(-c3ncccn3)c2c1` [Compound 319]: 500 to 5000 nM; `CN1CCC(Nc2nc(-c3c[nH]c4ncc(Cl)cc34)ncc2F)C1` (stereo not drawn) [Compound 352]: less than 500 nM.

As for `c1ccc(-c2cnc3[nH]cc(-c4cccc(NC5CCCCC5)n4)c3c2)cc1` [Compound 287], in experiment [1], the Ki was less than 500 nM. On the same count and under the same terms, next, `CCOC(=O)Nc1cnc2[nH]cc(-c3ncc(F)c(N[C@@H](C)c4ccc(F)cc4)n3)c2c1` [Compound 358]: 500 to 5000 nM; `C[C@H](Nc1nc(-c2c[nH]c3ncc(C(=O)O)cc23)ncc1F)c1ccc(F)cc1` [Compound 350]: 500 to 5000 nM; `C[C@H](Nc1nc(-c2c[nH]c3ncc(CO)cc23)ncc1F)c1ccc(F)cc1` [Compound 334]: less than 500 nM. On the same count and under the same terms, the figure for `C[C@H](Nc1nc(-c2c[nH]c3ncc(Cl)cc23)ncc1F)c1cccc(OCCN(C)C)c1` [Compound 320] is less than 500 nM. Same read-out and setting: next, `CNc1cccc(-c2c[nH]c3ncccc23)n1` [Compound 272]: 500 to 5000 nM; `O=C(Nc1cccc(-c2c[nH]c3ncc(Cl)cc23)n1)C1CCCCC1` [Compound 288]: less than 500 nM; `Nc1nc(-c2c[nH]c3ncc(Cl)cc23)ncc1F` [Compound 332]: less than 500 nM. As for `CC(C)C(=O)Nc1cccc(-c2c[nH]c3ncc(Cl)cc23)n1` [Compound 279], the Ki in experiment [1] lay within 500 to 5000 nM. Same read-out and setting: next, `O=C(Nc1cccc(-c2c[nH]c3ncc(Cl)cc23)n1)c1ccccc1Cl` [Compound 281]: less than 500 nM; `CC[C@H](C)NC(=O)[C@H](C)Nc1nc(-c2c[nH]c3ncc(Cl)cc23)ncc1F` [Compound 465]: less than 500 nM.
